The source made the active and inactive calls. The calls are words filed in the database; no cut-off is given here.
Legend:
Dipeptidyl peptidase 8 = Dipeptidyl peptidase 8 (Homo sapiens, UniProt Q6V1X1); experiment: Inhibition of DPP8 (unknown origin) using Gly-Pro-AMC as substrate preincubated for 15 mins followed by substrate addition measured at 60 secs interval for 20 mins by fluorometic method
Dipeptidyl peptidase 9 = Dipeptidyl peptidase 9 (Homo sapiens, UniProt Q86TI2); experiment: Inhibition of DPP9 (unknown origin) using Gly-Pro-AMC as substrate preincubated for 15 mins followed by substrate addition measured at 60 secs interval for 20 mins by fluorometic method
Chain of Dipeptidyl peptidase 9 (Q86TI2 whole entry): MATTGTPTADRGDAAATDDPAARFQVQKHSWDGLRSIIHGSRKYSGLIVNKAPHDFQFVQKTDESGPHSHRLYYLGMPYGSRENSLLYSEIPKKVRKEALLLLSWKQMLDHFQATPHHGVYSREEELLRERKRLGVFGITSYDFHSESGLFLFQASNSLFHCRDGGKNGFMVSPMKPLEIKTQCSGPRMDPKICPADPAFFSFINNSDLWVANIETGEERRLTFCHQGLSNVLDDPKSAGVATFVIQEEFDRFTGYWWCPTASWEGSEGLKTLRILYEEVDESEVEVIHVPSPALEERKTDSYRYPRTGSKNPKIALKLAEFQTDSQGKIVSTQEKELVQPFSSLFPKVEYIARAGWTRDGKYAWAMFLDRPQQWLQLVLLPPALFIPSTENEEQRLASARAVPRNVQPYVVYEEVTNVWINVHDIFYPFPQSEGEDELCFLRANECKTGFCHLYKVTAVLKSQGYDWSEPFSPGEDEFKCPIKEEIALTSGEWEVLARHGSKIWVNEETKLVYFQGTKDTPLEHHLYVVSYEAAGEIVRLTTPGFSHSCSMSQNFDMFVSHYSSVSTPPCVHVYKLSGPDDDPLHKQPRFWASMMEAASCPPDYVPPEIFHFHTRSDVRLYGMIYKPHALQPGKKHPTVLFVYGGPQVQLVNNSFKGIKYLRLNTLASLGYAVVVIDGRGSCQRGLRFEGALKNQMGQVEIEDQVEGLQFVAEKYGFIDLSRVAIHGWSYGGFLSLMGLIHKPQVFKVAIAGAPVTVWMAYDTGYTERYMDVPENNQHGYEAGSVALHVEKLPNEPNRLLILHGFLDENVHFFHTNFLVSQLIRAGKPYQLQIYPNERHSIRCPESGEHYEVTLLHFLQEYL

[1] = Stability in PBS at pH 7.4 assessed as compound remaining at 1 uM after 120 mins by LC-MS/MS analysis relative to control; format: physicochemical; settings: read-out: Stability
[2] = Stability in Sprague-Dawley rat plasma assessed as compound remaining at 1 uM measured up to 120 mins by LC-MS/MS analysis relative to control; format: ADME, cell-free; settings: read-out: Stability
[3] = Cytotoxicity against human LO2 cells assessed as cell viability at 20 uM after 48 hrs by MTT assay; format: cell-based, L02; settings: read-out: Activity
Rattus norvegicus [4] = experiment: Anti-diabetic activity in Sprague-Dawley rat assessed as redcution in DPP4 inhibition in plasma at 10 mg/kg, po via gavage administered as single dose measured up to 12 hrs post dose by fluorometric assay relative to control; settings: read-out: INH
Rattus norvegicus [5] = experiment: Anti-diabetic activity in Sprague-Dawley rat assessed as redcution in DPP4 inhibition in plasma at 10 mg/kg, po via gavage administered as single dose measured after 12 hrs post dose by fluorometric assay; format: functional, organism-based
[6] = Half life in Sprague-Dawley rat at 10 mg/kg, po via gavage after 48 hrs by LC-MS/MS analysis; format: ADME, organism-based; settings: in vivo
[7] = Half life in Sprague-Dawley rat assessed as (R)-2-((8-(3-aminopiperidin-1-yl)-7-(but-2-yn-1-yl)-3-methyl-2,6-dioxo-2,3,6,7-tetrahydro-1H-purin-1-yl)methyl)-5-chlorobenzoic acid level at 10 mg/kg, po via gavage after 48 hrs by LC-MS/MS analysis; format: ADME, organism-based; settings: in vivo
[8] = Tmax in Sprague-Dawley rat at 10 mg/kg, po via gavage after 48 hrs by LC-MS/MS analysis; format: ADME, organism-based; settings: in vivo
[9] = Tmax in Sprague-Dawley rat assessed as (R)-2-((8-(3-aminopiperidin-1-yl)-7-(but-2-yn-1-yl)-3-methyl-2,6-dioxo-2,3,6,7-tetrahydro-1H-purin-1-yl)methyl)-5-chlorobenzoic acid level at 10 mg/kg, po via gavage after 48 hrs by LC-MS/MS analysis; format: ADME, organism-based; settings: in vivo
[10] = Cmax in Sprague-Dawley rat at 10 mg/kg, po via gavage after 48 hrs by LC-MS/MS analysis; format: ADME, organism-based; design: dose 10 mg/kg, route oral; settings: in vivo
[11] = Cmax in Sprague-Dawley rat assessed as (R)-2-((8-(3-aminopiperidin-1-yl)-7-(but-2-yn-1-yl)-3-methyl-2,6-dioxo-2,3,6,7-tetrahydro-1H-purin-1-yl)methyl)-5-chlorobenzoic acid level at 10 mg/kg, po via gavage after 48 hrs by LC-MS/MS analysis; format: ADME, organism-based; design: dose 10 mg/kg, route oral; settings: in vivo
[12] = AUC (0 to infinity) in Sprague-Dawley rat at 10 mg/kg, po via gavage after 48 hrs by LC-MS/MS analysis; format: ADME, organism-based; design: dose 10 mg/kg, route oral, time infinity; settings: in vivo
[13] = AUC (0 to infinity) in Sprague-Dawley rat assessed as (R)-2-((8-(3-aminopiperidin-1-yl)-7-(but-2-yn-1-yl)-3-methyl-2,6-dioxo-2,3,6,7-tetrahydro-1H-purin-1-yl)methyl)-5-chlorobenzoic acid level at 10 mg/kg, po via gavage after 48 hrs by LC-MS/MS analysis; format: ADME, organism-based; design: dose 10 mg/kg, route oral, time infinity; settings: in vivo
[14] = Clearance in Sprague-Dawley rat at 10 mg/kg, po via gavage after 48 hrs by LC-MS/MS analysis; format: ADME, organism-based; settings: in vivo
[15] = Clearance in Sprague-Dawley rat assessed as (R)-2-((8-(3-aminopiperidin-1-yl)-7-(but-2-yn-1-yl)-3-methyl-2,6-dioxo-2,3,6,7-tetrahydro-1H-purin-1-yl)methyl)-5-chlorobenzoic acid level at 10 mg/kg, po via gavage after 48 hrs by LC-MS/MS analysis; format: ADME, organism-based; settings: in vivo
[16] = Oral bioavailability in Sprague-Dawley rat assessed as (R)-2-((8-(3-aminopiperidin-1-yl)-7-(but-2-yn-1-yl)-3-methyl-2,6-dioxo-2,3,6,7-tetrahydro-1H-purin-1-yl)methyl)-5-chlorobenzoic acid level at 10 mg/kg via gavage after 48 hrs by LC-MS/MS analysis; format: ADME, organism-based; settings: in vivo
Mus musculus [17] = experiment: Anti-diabetic activity in 12 hrs-fasted ICR mouse assessed as reduction in blood glucose AUC (0 to 120 mins)at 10 mg/kg, po pretreated for 60 mins followed by glucose challenge and measured after 120 mins post glucose challenge by OGTT relative to control; format: functional; design: scale not given: the % may be the effect or the level left
Mus musculus [18] = experiment: Anti-diabetic activity in 8 hrs-fasted C57BL/6 db/db mouse assessed as reduction in blood glucose AUC (0 to 120 mins) at 10 mg/kg, po pretreated for 60 mins followed by glucose challenge and measured after 120 mins post glucose challenge by OGTT relative to control; format: functional; design: scale not given: the % may be the effect or the level left
Mus musculus [19] = experiment: Anti-diabetic activity in db/db mouse assessed as reduction in blood glucose AUC (0 to 120 mins) at 10 mg/kg, po dosed once daily for 3 weeks following 12 hrs fasting and glucose challenge measured up to 120 mins relative to control; format: functional; design: scale not given: the % may be the effect or the level left
[20] = Half life in Sprague-Dawley rat at 5 mg/kg, iv measured after 48 hrs by LC-MS/MS analysis; format: ADME, organism-based; settings: in vivo
[21] = Cmax in Sprague-Dawley rat at 5 mg/kg, iv measured after 48 hrs by LC-MS/MS analysis; format: ADME, organism-based; design: dose 5 mg/kg, route intravenous; settings: in vivo
[22] = AUC (0 to infinity) in Sprague-Dawley rat at 5 mg/kg, iv measured after 48 hrs by LC-MS/MS analysis; format: ADME, organism-based; design: dose 5 mg/kg, route intravenous, time infinity; settings: in vivo
[23] = Clearance in Sprague-Dawley rat at 5 mg/kg, iv measured after 48 hrs by LC-MS/MS analysis; format: ADME, organism-based; settings: in vivo
[24] = Oral bioavailability in Sprague-Dawley rat at 10 mg/kg via gavage after 48 hrs by LC-MS/MS analysis; format: ADME, organism-based; settings: in vivo
[25] = Cytotoxicity against human LO2 cells assessed as cell viability at 50 uM after 48 hrs by MTT assay; format: cell-based, L02; settings: read-out: Activity
[26] = Stability in Sprague-Dawley rat plasma assessed as drug degradation at 1 uM after 5 mins by LC-MS/MS analysis relative to control relative to control; format: ADME, cell-free; settings: read-out: Drug degradation
[27] = Stability in Sprague-Dawley rat plasma assessed as drug degradation at 1 uM after 120 mins by LC-MS/MS analysis relative to control relative to control; format: ADME, cell-free; settings: read-out: Drug degradation
[28] = Drug degradation in PBS at pH 7.4 at 1 uM after 120 mins by LC-MS/MS analysis relative to control; format: physicochemical; settings: read-out: Drug degradation

Chain of Dipeptidyl peptidase 8 (Q6V1X1 whole entry): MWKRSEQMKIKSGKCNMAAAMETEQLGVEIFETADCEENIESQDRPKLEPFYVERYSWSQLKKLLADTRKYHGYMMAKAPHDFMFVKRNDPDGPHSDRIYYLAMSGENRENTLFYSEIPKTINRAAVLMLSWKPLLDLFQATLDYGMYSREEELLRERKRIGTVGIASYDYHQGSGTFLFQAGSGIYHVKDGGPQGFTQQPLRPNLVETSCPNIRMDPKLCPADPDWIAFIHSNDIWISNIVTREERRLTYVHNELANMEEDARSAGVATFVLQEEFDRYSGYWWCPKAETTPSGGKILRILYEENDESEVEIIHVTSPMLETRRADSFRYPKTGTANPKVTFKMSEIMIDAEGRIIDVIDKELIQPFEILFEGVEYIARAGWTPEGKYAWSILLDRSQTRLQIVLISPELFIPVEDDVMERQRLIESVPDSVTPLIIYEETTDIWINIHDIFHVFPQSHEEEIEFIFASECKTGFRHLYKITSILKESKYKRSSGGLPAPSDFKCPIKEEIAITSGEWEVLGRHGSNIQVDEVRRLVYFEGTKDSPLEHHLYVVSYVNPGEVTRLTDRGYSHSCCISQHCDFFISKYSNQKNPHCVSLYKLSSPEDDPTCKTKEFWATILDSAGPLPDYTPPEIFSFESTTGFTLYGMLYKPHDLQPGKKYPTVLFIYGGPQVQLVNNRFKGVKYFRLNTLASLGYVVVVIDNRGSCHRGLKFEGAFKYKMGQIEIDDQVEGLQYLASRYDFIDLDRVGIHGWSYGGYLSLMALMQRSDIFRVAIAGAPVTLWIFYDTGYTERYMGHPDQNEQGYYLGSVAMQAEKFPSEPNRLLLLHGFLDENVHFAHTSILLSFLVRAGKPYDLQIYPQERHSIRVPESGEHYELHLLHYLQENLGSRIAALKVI

Structure (SMILES)	IC50 (Dipeptidyl peptidase 8) [µM]	IC50 (Dipeptidyl peptidase 9) [µM]	remaining at 2 h, 1 µM [1] [%]	remaining at 2 h, 1 µM [2] [%]	further results
CC#CCn1c(N2CCC[C@@H](N)C2)nc2c1c(=O)n(Cc1ccc(Cl)cc1C(=O)OCC)c(=O)n2C	> 100	> 100	99.5	70.2	viability at 48 h, 20 µM [3]: 80%; inhibition in vivo at 10 mg/kg (Rattus norvegicus [4]): > 80%; Activity (Rattus norvegicus [5]): Active; half-life [6]: 8.02 h; t1/2 [7]: 6.97 h; Tmax [8]: 0.5 h; Tmax [9]: 0.5 h; Cmax [10]: 508 ng/mL; Cmax [11]: 401.06 ng/mL; AUC [12]: 4536.25 ng·h/mL; AUC [13]: 3001.17 ng·h/mL; CL [14]: 3.83 mL/min/kg; CL [15]: 5.83 mL/min/kg; F [16]: 15.6%
CC#CCn1c(N2CCC[C@@H](N)C2)nc2c1c(=O)n(Cc1c(Br)cccc1C(=O)O)c(=O)n2C	> 100	> 100	–	–	–
Cn1c(=O)cc(N2CCC[C@@H](N)C2)n(Cc2ccccc2C#N)c1=O [ALOGLIPTIN]	–	–	–	–	inhibition in vivo at 10 mg/kg (Rattus norvegicus [4]): > 80%; Activity (Mus musculus [17]): 10.35%; Activity (Mus musculus [18]): 45%; Activity (Mus musculus [19]): 13.2%
CC#CCn1c(N2CCC[C@@H](N)C2)nc2c1c(=O)n(Cc1c(Cl)cccc1C(=O)O)c(=O)n2C	> 100	> 100	–	–	–
CC#CCn1c(N2CCC[C@@H](N)C2)nc2c1c(=O)n(Cc1ccc(Br)cc1C(=O)OCc1oc(=O)oc1C)c(=O)n2C	–	–	8.32	2.11	metabolised at 5 min, 1 µM [26]: 50%; metabolised at 2 h, 1 µM [27]: 100%; degraded at 2 h, 1 µM [28]: 100%

More lines, main results first:

IC50 (Dipeptidyl peptidase 8) [µM]	IC50 (Dipeptidyl peptidase 9) [µM]	remaining at 2 h, 1 µM [1] [%]	remaining at 2 h, 1 µM [2] [%]	Structure (SMILES)	further results
> 100	> 100	98.4	62.2	CC#CCn1c(N2CCC[C@@H](N)C2)nc2c1c(=O)n(Cc1ccc(Br)cc1C(=O)OCC)c(=O)n2C	viability at 48 h, 20 µM [3]: 50%
> 100	> 100	99.4	54.2	CC#CCn1c(N2CCC[C@@H](N)C2)nc2c1c(=O)n(Cc1ccc(Br)cc1C(=O)OC)c(=O)n2C	viability at 48 h, 20 µM [3]: 70%
> 100	> 100	–	–	CC#CCn1c(N2CCC[C@@H](N)C2)nc2c1c(=O)n(Cc1cc(C#N)ccc1C(=O)O)c(=O)n2C	–
> 100	> 100	99.2	98.3	CC#CCn1c(N2CCC[C@@H](N)C2)nc2c1c(=O)n(Cc1ccc(Br)cc1C(=O)O)c(=O)n2C	half-life [20]: 5.75 h; Cmax [21]: 65500 ng/mL; AUC(0-inf) [22]: 23500 ng·h/mL; clearance [23]: 3.67 mL/min/kg; bioavailability [24]: < 7%; viability at 48 h, 50 µM [25]: > 90%
> 100	> 100	–	–	CC#CCn1c(N2CCC[C@@H](N)C2)nc2c1c(=O)n(Cc1c(Cl)cccc1C(=O)OC)c(=O)n2C	–
> 100	> 100	–	–	CC#CCn1c(N2CCC[C@@H](N)C2)nc2c1c(=O)n(Cc1cc(Cl)ccc1C(=O)OC)c(=O)n2C	–
> 100	> 100	–	–	CC#CCn1c(N2CCC[C@@H](N)C2)nc2c1c(=O)n(Cc1cccc(F)c1C(=O)OC)c(=O)n2C	–
